The text below walks through data of ChEMBL document CHEMBL3870328, “Synthesis of novel Ral inhibitors: An in vitro and in vivo study” (Bioorg Med Chem Lett, 2016).

A short description of series [1]: Drug metabolism in CD1 mouse liver microsomes assessed as CYP450-mediated demethylation by measuring M4 metabolite formation at 16.7 uM after 10 mins in presence of NADPH by LC-MS/MS analysis. The class given is ADME. In general terms: Liver microsomes are vesicles of endoplasmic reticulum, rich in cytochrome P450 enzymes.
Series [2] is described as follows: Drug metabolism in mouse xenografted with human NCI-H2122 cells assessed as M5 metabolite formation in liver at 50 mg/kg, ip after 3 hrs by LC-MS/MS analysis. The class given is ADME, organism-based. Particulars: in vivo. For orientation: A xenograft is tissue or cells of one species grown in another, often human tumour cells in immunodeficient mice.
The nature of series [3]: Drug metabolism in mouse xenografted with human NCI-H2122 cells assessed as M1 metabolite formation in tumor at 50 mg/kg, ip after 3 hrs by LC-MS/MS analysis. The class given is ADME, organism-based, Neoplasm. Particulars: in vivo.
A short description of series [4]: Drug uptake in heart of mouse xenografted with human NCI-H2122 cells at 50 mg/kg, ip after 3 hrs by LC-MS/MS analysis. It counts as ADME, organism-based. The conditions noted are these: read-out: Drug uptake.
Series [5] in a line: Drug metabolism in mouse xenografted with human NCI-H2122 cells assessed as M3 metabolite formation in tumor at 50 mg/kg, ip after 3 hrs by LC-MS/MS analysis. It counts as ADME, organism-based, Neoplasm. The conditions noted are these: in vivo.
Series [6] can be described thus: Drug metabolism in CD1 mouse liver microsomes assessed as CYP450-mediated mono-oxidation by measuring M5 metabolite formation at 16.7 uM after 10 mins in presence of NADPH by LC-MS/MS analysis. The class given is ADME.
The nature of series [7]: Drug metabolism in mouse xenografted with human NCI-H2122 cells assessed as M4 metabolite formation in heart at 50 mg/kg, ip after 3 hrs by LC-MS/MS analysis. Particulars: in vivo. It counts as ADME, organism-based.
Series [8] in a line: Drug metabolism in mouse xenografted with human NCI-H2122 cells assessed as 6-amino-4-(2,5-dihydroxyphenyl)-3-(naphthalen-2-yl)-1,4-dihydropyrano[2,3-c]pyrazole-5-carbonitrile metabolite formation in plasma at 50 mg/kg, ip after 3 hrs by LC-MS/MS analysis. Particulars: in vivo. It counts as ADME, organism-based.
Series [9] can be described thus: Drug metabolism in mouse xenografted with human NCI-H2122 cells assessed as M5 metabolite formation in lungs at 50 mg/kg, ip after 3 hrs by LC-MS/MS analysis. The class given is ADME, organism-based, Lung. The conditions noted are these: in vivo.
Series [10] is described as follows: Drug metabolism in mouse xenografted with human NCI-H2122 cells assessed as M5 metabolite formation in heart at 50 mg/kg, ip after 3 hrs by LC-MS/MS analysis. The class given is ADME, organism-based. The conditions noted are these: in vivo.

On to `COc1ccc(OC)c(C2C(C#N)=C(N)Oc3[nH]nc(-c4ccc5ccccc5c4)c32)c1` (stereo not given), for which the Drug metabolism result in series [1] is listed as “Metabolite_Detected”; in series [2], 72.6 ng/g; in [3] it was 7.4 ng/g; in [5], 0.7 ng/g; in series [6], “Metabolite_Detected”; in series [7] it was 33.5 ng/g. Also, the values for the Drug metabolism in series [8], in [9] and in [10] were 8.4 ng/mL, 11.5 ng/g and 5.5 ng/g, respectively. Further, in [4], the concentration at 3 h was 13700 ng/g.
